{
  "source": "patent US9980943B2",
  "about": "“Methods of treating muscular dystrophy” (BOARD OF REGENTS OF THE NEVADA SYSTEM OF HIGHER EDUCATION, …, priority 2013, dated 2018)",
  "format_in_all_cases": "cell-based, mouse",
  "key": {"[1]": {"system": "α7 integrin (LacZ reporter in α7+/LacZ myotubes)", "test": "Myotube α7 integrin FDG assay (Burkin assay in myotubes, 96-well)", "settings": "myotubes"}, "[2]": {"system": "α7 integrin (LacZ reporter in α7βgal+/− myoblasts)", "test": "Myoblast α7+/LacZ integrin FDG assay (Burkin assay in myoblasts, 96-well)", "settings": "α7+/LacZ myoblasts, 96-well"}, "[3]": {"system": "β-galactosidase in CMV-LacZ C2C12 myotubes", "test": "CMV-LacZ secondary screen in C2C12 myotubes (β-Gal stabilizing assay)", "settings": "C2C12 CMV-LacZ myotubes, fold relative to DMSO", "method_in_brief": "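CMV-LacZ C2C12 line (clonal, FDG-screened); myoblasts/myotubes dosed 0.5–40 μM (0.5, 1, 5, 10, 20, 40 μM); n=2 per point; β-gal stabilization read-out.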"}, "[4]": {"system": "β-galactosidase in CMV-LacZ C2C12 myoblasts", "test": "CMV-LacZ secondary screen in C2C12 myoblasts (β-Gal stabilizing assay)", "settings": "CMV-LacZ C2C12 myoblasts", "method_in_brief": "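C2C12 myoblasts stably carrying a linearized CMV-driven LacZ construct, clone chosen by β-gal level in the myoblast FDG assay. Compounds tested in 96-well dose-response at 0.5, 1, 5, 10, 20 and 40 μM, N=2 replicates per point, to detect β-gal stabilization.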"}},
  "data": [
    {"smiles": "CCOC(=O)c1cc(-c2cccs2)nc2c1c(C)nn2-c1ccccn1", "note": "[MLS001006516-01]", "values": [
      {"measurement": "Burkin Assay in Myotubes, α7 integrin LacZ reporter signal relative to DMSO", "setting": "[1]; 0.5 uM", "value": 0.9261},
      {"measurement": "Burkin Assay in Myotubes, α7 integrin LacZ reporter signal relative to DMSO", "setting": "[1]; 1 uM", "value": 0.8714},
      {"measurement": "Burkin Assay in Myotubes, α7 integrin LacZ reporter signal relative to DMSO", "setting": "[1]; 5 uM", "value": 0.9257},
      {"measurement": "Burkin Assay in Myotubes, α7 integrin LacZ reporter signal relative to DMSO", "setting": "[1]; 10 uM", "value": 0.9085},
      {"measurement": "Burkin Assay in Myotubes, α7 integrin LacZ reporter signal relative to DMSO", "setting": "[1]; 20 uM", "value": 0.7127},
      {"measurement": "Burkin Assay in Myotubes, α7 integrin LacZ reporter signal relative to DMSO", "setting": "[1]; 40 uM", "value": 0.7127},
      {"measurement": "Burkin Assay in Myoblasts, signal relative to DMSO", "setting": "[2]; 0.5 uM", "value": 1.097},
      {"measurement": "Burkin Assay in Myoblasts, signal relative to DMSO", "setting": "[2]; 1 uM", "value": 1.134},
      {"measurement": "Burkin Assay in Myoblasts, signal relative to DMSO", "setting": "[2]; 5 uM", "value": 0.8796},
      {"measurement": "Burkin Assay in Myoblasts, signal relative to DMSO", "setting": "[2]; 10 uM", "value": 0.7932},
      {"measurement": "Burkin Assay in Myoblasts, signal relative to DMSO", "setting": "[2]; 20 uM", "value": 0.6928},
      {"measurement": "Burkin Assay in Myoblasts, signal relative to DMSO", "setting": "[2]; 40 uM", "value": 0.4802},
      {"measurement": "CMV-LACZ in Myotubes, signal relative to DMSO", "setting": "[3]; 0.5 uM", "value": 0.9581},
      {"measurement": "CMV-LACZ in Myotubes, signal relative to DMSO", "setting": "[3]; 1 uM", "value": 0.9257},
      {"measurement": "CMV-LACZ in Myotubes, signal relative to DMSO", "setting": "[3]; 5 uM", "value": 0.9283},
      {"measurement": "CMV-LACZ in Myotubes, signal relative to DMSO", "setting": "[3]; 10 uM", "value": 0.8542},
      {"measurement": "CMV-LACZ in Myotubes, signal relative to DMSO", "setting": "[3]; 20 uM", "value": 0.9032},
      {"measurement": "CMV-LACZ in Myotubes, signal relative to DMSO", "setting": "[3]; 40 uM", "value": 0.9484},
      {"measurement": "CMV-LACZ in Myoblasts (β-galactosidase activity relative to DMSO)", "setting": "[4]; 0.5 uM", "value": 1.0038},
      {"measurement": "CMV-LACZ in Myoblasts (β-galactosidase activity relative to DMSO)", "setting": "[4]; 1 uM", "value": 0.8858},
      {"measurement": "CMV-LACZ in Myoblasts (β-galactosidase activity relative to DMSO)", "setting": "[4]; 5 uM", "value": 0.9829},
      {"measurement": "CMV-LACZ in Myoblasts (β-galactosidase activity relative to DMSO)", "setting": "[4]; 10 uM", "value": 0.9076},
      {"measurement": "CMV-LACZ in Myoblasts (β-galactosidase activity relative to DMSO)", "setting": "[4]; 20 uM", "value": 0.4956},
      {"measurement": "CMV-LACZ in Myoblasts (β-galactosidase activity relative to DMSO)", "setting": "[4]; 40 uM", "value": 0.6589}
    ]},
    {"smiles": "COc1ccccc1C(=O)OCc1ccc2sc(C)nc2c1", "note": "[MLS001006798-01]", "values": [
      {"measurement": "Burkin Assay in Myotubes, α7 integrin LacZ reporter signal relative to DMSO", "setting": "[1]; 0.5 uM", "value": 0.9345},
      {"measurement": "Burkin Assay in Myotubes, α7 integrin LacZ reporter signal relative to DMSO", "setting": "[1]; 1 uM", "value": 1.042},
      {"measurement": "Burkin Assay in Myotubes, α7 integrin LacZ reporter signal relative to DMSO", "setting": "[1]; 5 uM", "value": 1.06},
      {"measurement": "Burkin Assay in Myotubes, α7 integrin LacZ reporter signal relative to DMSO", "setting": "[1]; 10 uM", "value": 0.8906},
      {"measurement": "Burkin Assay in Myotubes, α7 integrin LacZ reporter signal relative to DMSO", "setting": "[1]; 20 uM", "value": 0.9746},
      {"measurement": "Burkin Assay in Myotubes, α7 integrin LacZ reporter signal relative to DMSO", "setting": "[1]; 40 uM", "value": 0.8886},
      {"measurement": "Burkin Assay in Myoblasts, signal relative to DMSO", "setting": "[2]; 0.5 uM", "value": 1.191},
      {"measurement": "Burkin Assay in Myoblasts, signal relative to DMSO", "setting": "[2]; 1 uM", "value": 0.9282},
      {"measurement": "Burkin Assay in Myoblasts, signal relative to DMSO", "setting": "[2]; 5 uM", "value": 1.133},
      {"measurement": "Burkin Assay in Myoblasts, signal relative to DMSO", "setting": "[2]; 10 uM", "value": 1.008},
      {"measurement": "Burkin Assay in Myoblasts, signal relative to DMSO", "setting": "[2]; 20 uM", "value": 1.118},
      {"measurement": "Burkin Assay in Myoblasts, signal relative to DMSO", "setting": "[2]; 40 uM", "value": 1.016},
      {"measurement": "CMV-LACZ in Myotubes, signal relative to DMSO", "setting": "[3]; 0.5 uM", "value": 1.0419},
      {"measurement": "CMV-LACZ in Myotubes, signal relative to DMSO", "setting": "[3]; 1 uM", "value": 0.9648},
      {"measurement": "CMV-LACZ in Myotubes, signal relative to DMSO", "setting": "[3]; 5 uM", "value": 1.2236},
      {"measurement": "CMV-LACZ in Myotubes, signal relative to DMSO", "setting": "[3]; 10 uM", "value": 1.0267},
      {"measurement": "CMV-LACZ in Myotubes, signal relative to DMSO", "setting": "[3]; 20 uM", "value": 0.9953},
      {"measurement": "CMV-LACZ in Myotubes, signal relative to DMSO", "setting": "[3]; 40 uM", "value": 1.0976},
      {"measurement": "CMV-LACZ in Myoblasts (β-galactosidase activity relative to DMSO)", "setting": "[4]; 0.5 uM", "value": 0.8334},
      {"measurement": "CMV-LACZ in Myoblasts (β-galactosidase activity relative to DMSO)", "setting": "[4]; 1 uM", "value": 1.0326},
      {"measurement": "CMV-LACZ in Myoblasts (β-galactosidase activity relative to DMSO)", "setting": "[4]; 5 uM", "value": 1.1509},
      {"measurement": "CMV-LACZ in Myoblasts (β-galactosidase activity relative to DMSO)", "setting": "[4]; 10 uM", "value": 1.0189},
      {"measurement": "CMV-LACZ in Myoblasts (β-galactosidase activity relative to DMSO)", "setting": "[4]; 20 uM", "value": 0.9622},
      {"measurement": "CMV-LACZ in Myoblasts (β-galactosidase activity relative to DMSO)", "setting": "[4]; 40 uM", "value": 0.8263}
    ]},
    {"smiles": "CCCC(=O)OCC(=O)c1[nH]c(C)c(C(C)=O)c1C", "note": "[MLS001007892-01]", "values": [
      {"measurement": "Burkin Assay in Myotubes, α7 integrin LacZ reporter signal relative to DMSO", "setting": "[1]; 0.5 uM", "value": 0.9046},
      {"measurement": "Burkin Assay in Myotubes, α7 integrin LacZ reporter signal relative to DMSO", "setting": "[1]; 1 uM", "value": 1.013},
      {"measurement": "Burkin Assay in Myotubes, α7 integrin LacZ reporter signal relative to DMSO", "setting": "[1]; 5 uM", "value": 0.9742},
      {"measurement": "Burkin Assay in Myotubes, α7 integrin LacZ reporter signal relative to DMSO", "setting": "[1]; 10 uM", "value": 1.075},
      {"measurement": "Burkin Assay in Myotubes, α7 integrin LacZ reporter signal relative to DMSO", "setting": "[1]; 20 uM", "value": 0.8343},
      {"measurement": "Burkin Assay in Myotubes, α7 integrin LacZ reporter signal relative to DMSO", "setting": "[1]; 40 uM", "value": 0.9888},
      {"measurement": "Burkin Assay in Myoblasts, signal relative to DMSO", "setting": "[2]; 0.5 uM", "value": 1.127},
      {"measurement": "Burkin Assay in Myoblasts, signal relative to DMSO", "setting": "[2]; 1 uM", "value": 1.037},
      {"measurement": "Burkin Assay in Myoblasts, signal relative to DMSO", "setting": "[2]; 5 uM", "value": 1.016},
      {"measurement": "Burkin Assay in Myoblasts, signal relative to DMSO", "setting": "[2]; 10 uM", "value": 1.23},
      {"measurement": "Burkin Assay in Myoblasts, signal relative to DMSO", "setting": "[2]; 20 uM", "value": 0.7225},
      {"measurement": "Burkin Assay in Myoblasts, signal relative to DMSO", "setting": "[2]; 40 uM", "value": 0.4983},
      {"measurement": "CMV-LACZ in Myotubes, signal relative to DMSO", "setting": "[3]; 0.5 uM", "value": 1.1673},
      {"measurement": "CMV-LACZ in Myotubes, signal relative to DMSO", "setting": "[3]; 1 uM", "value": 0.9291},
      {"measurement": "CMV-LACZ in Myotubes, signal relative to DMSO", "setting": "[3]; 5 uM", "value": 1.0066},
      {"measurement": "CMV-LACZ in Myotubes, signal relative to DMSO", "setting": "[3]; 10 uM", "value": 0.9543},
      {"measurement": "CMV-LACZ in Myotubes, signal relative to DMSO", "setting": "[3]; 20 uM", "value": 1.2170},
      {"measurement": "CMV-LACZ in Myotubes, signal relative to DMSO", "setting": "[3]; 40 uM", "value": 1.0540},
      {"measurement": "CMV-LACZ in Myoblasts (β-galactosidase activity relative to DMSO)", "setting": "[4]; 0.5 uM", "value": 0.9338},
      {"measurement": "CMV-LACZ in Myoblasts (β-galactosidase activity relative to DMSO)", "setting": "[4]; 1 uM", "value": 0.8108},
      {"measurement": "CMV-LACZ in Myoblasts (β-galactosidase activity relative to DMSO)", "setting": "[4]; 5 uM", "value": 1.0511},
      {"measurement": "CMV-LACZ in Myoblasts (β-galactosidase activity relative to DMSO)", "setting": "[4]; 10 uM", "value": 1.1495},
      {"measurement": "CMV-LACZ in Myoblasts (β-galactosidase activity relative to DMSO)", "setting": "[4]; 20 uM", "value": 0.6390},
      {"measurement": "CMV-LACZ in Myoblasts (β-galactosidase activity relative to DMSO)", "setting": "[4]; 40 uM", "value": 0.4953}
    ]}
  ]
}
